Values quoted from earlier work as cited in patent US7476665B2, “Benzodiazepine CGRP receptor antagonists” (Merck & Co., Inc., priority 2003, dated 2009).
Where two headings read alike, the source gives them in different places. Where no end group is shown, it is not given here.

Experiments:
facial blood flow [1] = details: marmoset, electrical stimulation of the trigeminal ganglion (Doods et al. 2000)
facial blood flow [2] = details: rat, trigeminal ganglion stimulation (Escott et al. 1995)
middle meningeal artery = details: rats, electrical stimulation of the dura mater, prior administration (Williamson et al. 1997)

In the case of `NCCCC[C@H](NC(=O)[C@@H](Cc1cc(Br)c(O)c(Br)c1)NC(=O)N1CCC(N2Cc3ccccc3NC2=O)CC1)C(=O)N1CCN(c2ccncc2)CC1` [BIBN4096BS], the “effect on increase of facial blood flow” value (facial blood flow [1]) is listed as “blocked”.
For “CGRP(8-37): a peptide CGRP antagonist (VTHRLAGLLSRSGGVVKNNFVPTNVGSKAF; ends and bridges not checked; UniProt P06881 90-119, looked up, fragment)”, the “effect on increase of facial blood flow” value (facial blood flow [2]) is listed as “inhibited” and the “effect on increase of middle meningeal artery diameter” value (middle meningeal artery) is listed as “blocked”.
